# Measured values: patent US8337828B2, “Use of thymosin alpha 1, alone or in combination with PTX3 or ganciclovir, for the treatment of cytomegalovirus infection” (priority 2006, dated 2012)
# Tests used:
# MCMV = MCMV infection in mice, virus titers by standard plaque assay on tissues; type: in vivo, BALB/c and C57BL6 mice
# Procedure: BALB/c (FIG. 1a) and C57BL6 (FIG. 1b) mice were infected with 1×10^5 or 5×10^5 PFU of MCMV, respectively. Virus titers were quantified on MEF cells by standard plaque assay on tissues removed at different times (FIG. 1a) or a week after infection (FIG. 1b) and expressed as log 10(mean±standard errors, SE). Thymosin alpha 1 (200 μg/kg given for 7 or 14 days) and GCV (40 mg/kg given three times a week) were administered beginning the day of the infection. Controls received the scrambled peptide. Results are representative of 4 independent experiments. Bars indicate the standard errors. *P<0.05, viral load between treated and untreated mice.
# (§1) BALB/c or C57BL6 mice were infected with 10^5 or 5×10^5 PFU of MCMV, respectively. Virus titers, expressed as log 10, were quantified on MEF cells by standard plaque assay on lung tissues removed 7 days after the infection. Tα1 (200 μg/kg/daily for a week) and/or GCV (40 mg/kg, three times a week) were administered beginning the day of the infection. Cytokine (pg/ml) levels in culture supernatants of spleen cells (7 days) were determined by ELISA assay. Bars indicate the standard errors. *P<0.05, treated vs untreated mice. Results are representative of 3 independent experiments.
# Inbred C57BL6 and BALB/c mice were injected intraperitoneally (i.p.) with 1×10^5 (BALB/c) or 5×10^5 (C57BL6) plaque forming units (PFU) of MCMV. Virus titers were quantified on MEF cells by standard plaque assay on tissues removed a day after treatment. Treatments were as follow: Tα1 ([…]) and PTX3 (1 mg/k/ip) (SIGMA-Tau, Pomezia, Rome, Italy) were given daily for 7 consecutive days beginning the day of the infection. Controls received the scrambled peptide. All organs from uninfected animals were negative viruses. Virus titers are expressed as log 10 (mean±standard errors, SE).
# Mice. Wild-type (WT) inbred C57BL6 and BALB/c mice, 8 to 12 weeks old, were purchased from Charles River Breeding Laboratories (Calco, Italy). Pairs of homozygous TLR9-(TLR9−/−), TLR4-(TLR4−/−), and MyD88-(MyD88−/−)-deficient mice (on the C57BL6 background), were bred under specific pathogen-free conditions at the breeding facilities of the University of Perugia, Perugia, Italy. Experiments were performed following protocols approved by the institutional animal committee and in accordance with European Economic Community Council Directive as well as institutional animal care and use guidelines.
# Virus, infection and treatments. Stocks of Smith strain MCMV salivary gland extracts were prepared from BALB/c mice and titered in a standard plaque assay on BALB/c murine embryonic fibroblast (MEF) cells (J. Gen. Virol. 2002; 83:2983-2993). Mice were injected intraperitoneally (i.p.) with 1×10^5 (C57BL6) plaque forming units (PFU) of MCMV. Virus titers were quantified on MEF cells by standard plaque assay on tissues removed at different times. Treatments were as follows: Thymosin alpha 1 and the scrambled polypeptide (both from SciClone Pharmaceuticals, San Mateo, CA) were supplied as purified (the endotoxin levels were <0.03 pg/ml, by a standard limulus lysate assay) sterile, lyophilized, acetylated polypeptide. The sequences were as follows: Ac-Ser-Asp-Ala-Ala-Val-Asp-Thr-Ser-Ser-Glu -Ile-Thr-Thr-Lys-Asp-Leu-Lys-Glu-Lys-Lys-Glu-Val-Glu-Glu-Ala-Glu-Asn-O (Tα1) SEQ ID NO:1 and Ac-Ala-Lys-Ser-Asp-Val-Lys-Ala-Glu-Thr-Ser-Ser-Glu-Ile-Asp-Thr-Thr-Glu-Leu -Asp-Glu-Lys-Val-Glu-Val-Lys-Ala-Asn-Glu-OH (scrambled peptide) SEQ ID NO:2. The lyophilized powders were reconstituted in sterile water and 200 μg/kg/i.p. were given daily for 7 or 14 consecutive days beginning the day of the infection. Gancyclovir (GCV) (Cymevene; from Recordati, Milan, Italy) was administered at 40 mg/kg/i.p. three times a week, every other day, beginning 6 h after infection. Controls received the scrambled peptide or the diluent alone.
# Plaque assay. Plaque assay was determined on cells grown to subconfluence and incubated with serially diluted virus samples for 2 h at 37° C. (10). […]
# spleen cells = test: Cytokine levels in culture supernatants of spleen cells from MCMV-infected mice (ELISA); type: in vivo; conditions: BALB/c mice with MCMV infection, GCV compared with Thymosin alpha 1
# Description: Arrow indicates an inducible band. Lane 1, uninfected cells; lane 2, MCMV-infected; lane 3, Thymosin alpha 1 treated; lane 4, MCMV+Thymosin alpha 1 treated. (FIG. 3b) Cytokine production (pg/ml) by DC subsets treated as above. Bars indicate the standard errors. *P<0.05, cytokine production in MCMV-infected DC vs uninfected DC. **P<0.05, Thymosin alpha 1-treated vs untreated DC. (FIG. 3c) Cytokine production in mice during MCMV infection. Cytokine levels (pg/ml) in culture supernatants of spleen cells from mice with MCMV infection and treated for a week with Thymosin alpha 1 or GCV. *P<0.05, treated vs untreated mice. ND, not done.
# Viral load (FIG. 4a) and cytokine production (FIG. 4b) in C57BL6, TLR4−/−, TLR9−/− and MyD88−/− mice infected with 5×10^5 PFU of MCMV and treated with 200 μg/kg Tα1 for a week. Virus titers, expressed as log 10, were quantified on MEF cells by standard plaque assay on infected tissues removed a week after infection and treatment. Cytokine (pg/ml) levels in culture supernatants of spleen cells were determined by ELISA assay. Bars indicate the standard errors. *P<0.05, Tα1-treated vs untreated mice. Results are representative of 3 independent experiments.
# as §1
# Quantification of cytokines by ELISA and ELISPOT assays. The levels of cytokines in the culture supernatants of mitogen-stimulated spleen cells (48 h stimulation with 10 μg/ml ConA) or MCMV-pulsed DC (24 h) were determined by ELISA (R&D Systems and PBL, Biomedical Lab, Milan, Italy). The detection limits (pg/ml) of the assays were <16 for IL-12 p70, <10 for IFN-., <3 for IL-10 and <10 for IFN-a. IFN-.-producing NK cells were enumerated by ELISPOT assay on purified NK (Virus Res. 2003; 98:17-467 25). Results are expressed as the mean number of cytokine-producing cells (±SE) per 10^5 cells, calculated using replicates of serial 2-fold dilutions of cells.
compound,measurement,setting,value
Ac-Ala-Lys-Ser-Asp-Val-Lys-Ala-Glu-Thr-Ser-Ser-Glu-Ile-Asp-Thr-Thr-Glu-Leu -Asp-Glu-Lys-Val-Glu-Val-Lys-Ala-Asn-Glu-OH (Ac-AKSDVKAETSSEIDTTELDEKVEVKANE-OH) [scrambled peptide],viral load in different visceral organs,"MCMV; 200 μg/kg for 7 days, both susceptible (BALB/c) and resistant (C57BL6) mice",not
"Nc1nc(O)c2ncn(COC(CO)CO)c2n1 [GCV, Ganciclovir]","IFN-a, IFN-. and IL-12p70 production",spleen cells,comparable to those obtained with GCV
PTX3: long pentraxin protein with N-terminal domain and C-terminal domain similar to short pentraxins; from SIGMA-Tau,viral titers in the lung,"MCMV; PTX3 alone, 1 mg/k/ip daily for 7 days, BALB/c or C57BL6 mice",decreased the viral titers
